From patent US20200061092A1, “METHODS AND COMPOSITIONS FOR TREATING DISORDERS ASSOCIATED WITH MUSCLE WEAKNESS” (priority 2018, published 2020)

Columns and labels:
[1] = system: ribitol, ribitol-5P and CDP-ribitol levels in heart and quadriceps; assay: LC/MS-MS quantification of ribitol, ribitol-5P and CDP-ribitol in muscle tissues of P448L mice; assay type: in vivo, mouse; settings: 5% ribitol 1 month
Protocol: Ribitol was purchased from Sigma (A5502 Adonitol, ≥98%, Sigma, St. Louis) and dissolved in drinking water to the final concentration of 5% or 10%. […] mice aged at 4 weeks were treated with 5% ribitol drinking water for 1 month and […] mice aged at 7 weeks were treated with 5% ribitol drinking water for 3 months and 6 months. All the mice were randomly assigned to either treatment or control groups. And a minimum number of 4 mice were used for each group. No animal was excluded. […] female breeders were given 10% ribitol in drinking water during pregnancy, and pups continued to be treated with 10% ribitol in drinking water until they were euthanized at 19 weeks of age. Untreated age-matched […] and wild-type C57BL/6 mice were used as controls. The animals were terminated at the end of each treatment time point and tissues including heart, diaphragm, TA, quadriceps, liver, spleen and kidney were collected for analyses. Ribitol was purchased from Sigma (A5502). […] The supernatants were removed, transferred to individual wells of 96-well plate and analyzed by LC/MS-MS. […] The metabolites were analyzed using electrospray ionization mass spectrometry operated in positive ion mode, ESI+. Compounds concentration in tissue samples were determined based on standard curves prepared by serial dilutions (200-0.01 μM) of each of the compound in MeOH:ACN (1:1).

[2] = system: F-α-DG (functionally glycosylated α-DG); assay: Western blot (IIH6C4) quantification and laminin overlay assay of muscle lysates from ribitol-treated P448L mice; assay type: in vivo, mouse; settings: for F-α-DG by IIH6C4 western blot, % of normal (C57) levels: 6 months (FIG. 3c)
Protocol: Ribitol was purchased from Sigma (A5502 Adonitol, ≥98%, Sigma, St. Louis) and dissolved in drinking water to the final concentration of 5% or 10%. […] mice aged at 4 weeks were treated with 5% ribitol drinking water for 1 month and […] mice aged at 7 weeks were treated with 5% ribitol drinking water for 3 months and 6 months. All the mice were randomly assigned to either treatment or control groups. And a minimum number of 4 mice were used for each group. No animal was excluded. […] female breeders were given 10% ribitol in drinking water during pregnancy, and pups continued to be treated with 10% ribitol in drinking water until they were euthanized at 19 weeks of age. Untreated age-matched […] and wild-type C57BL/6 mice were used as controls. The animals were terminated at the end of each treatment time point and tissues including heart, diaphragm, TA, quadriceps, liver, spleen and kidney were collected for analyses. For western blot analysis, tissues were homogenized in extraction buffer (50 mM Tris-HCl pH 8.0, 150 mM NaCl, and 1% Triton X-100), supplemented with 1× protease inhibitor cocktail (Sigma-Aldrich). Protein concentration was quantified by Bradford assay (Bio-Rad DC protein assay). Eighty μg of protein was loaded on a 4-15% Bio-Rad Mini-PROTEAN TGX gel (Bio-Rad) and immunoblotted. Amount of total protein loaded for C57 mice was half of the amount loaded for the […] mice. Nitrocellulose membranes (Bio-Rad) were blocked with 5% milk in 1×PBS for 2 hr at room temperature and then incubated with the following primary antibodies overnight at 4° C.: IIH6C4 (1:2000), AF6868 (R&D Systems) (1:1000) and α-actin (Sigma) (1:1000). Appropriate horseradish peroxidase (HRP)-conjugated secondary antibodies were incubated for 2 hr at room temperature. All blots were developed by electrochemiluminescence immunodetection (PerkinElmer). For IIH6C4 band quantification from western blot ImageJ software was used. For laminin overlay assay, nitrocellulose membranes were blocked with laminin overlay buffer (10 mM ethanolamine, 140 mM NaCl, 1 mM MgCl2, and 1 mM CaCl2, pH 7.4) containing 5% nonfat dry milk for 1 hr at 4° C. followed by incubation with laminin from Engelbreth-Holm-Swarm murine sarcoma basement membrane (L2020) (Sigma) at a concentration of 2 μg/ml overnight at 4° C. in laminin overlay buffer. Membranes were then incubated with rabbit anti-laminin antibody (Sigma) (1:1500) followed by goat anti-rabbit HRP-conjugated IgG secondary antibody (Santa Cruz Biotechnology) (1:3000). Blots were saturated with Western-Lightning Plus ECL (Perkin-Elmer) before exposure to and developing of GeneMate auto-radiographic film (VWR).

With `OC[C@@H](O)[C@@H](O)[C@@H](O)CO` [ribitol] the “Levels of ribitol, ribitol-5P and CDP-ribitol vs untreated P448L” value ([1]; heart and quadricep) was “increased levels”, the “CDP-ribitol levels, treated vs untreated” value ([1]; heart and quadriceps) was “at least 4 fold” and the “Functionality of glycosylated α-DG by laminin overlay assay” value ([2]; 5% ribitol, 6 months) was “supported by laminin overlay assay”. The “F-α-DG by IIH6C4 western blot, % of normal (C57) levels” value ([2]; 5% ribitol, cardiac muscle) was “up to 14%”, the “F-α-DG by IIH6C4 western blot, % of normal (C57) levels” value ([2]; 5% ribitol, diaphragm) was at most 17% and the “Functionality of glycosylated α-DG by laminin overlay assay” value ([2]; 10% ribitol from pregnancy to 19 weeks) was “supported by laminin overlay assay”. For the same molecule, the “F-α-DG by IIH6C4 western blot, % of normal levels” value (“F-α-DG … % of normal levels” below) ([2]; 10% ribitol from pregnancy to 19 weeks, diaphragm) was 18%, the “F-α-DG … % of normal levels” value ([2]; 10% ribitol from pregnancy to 19 weeks, heart) was 14% and the “F-α-DG … % of normal levels” value ([2]; 10% ribitol from pregnancy to 19 weeks, limb muscle) was 26%.
